Assay in all cases: NCI-60 cell line screen, 48 h
Test [1] has as its system 786-0.
Test [2] concerns CAKI-1.
Test [3] concerns COLO 205.
The subject of test [4] is DMS-273.
The test system of test [5] is HCT-116.
The subject of test [6] is HOP-92.
The test system of test [7] is LOX IMVI.
In test [8] the test system is NCI-H226.
The test system of test [9] is OVCAR-5.
The test system of test [10] is SF-295.
The subject of test [11] is SK-MEL-28.
In test [12] the test system is SK-MEL-2.
For test [13], the system named is SK-MEL-5.
Test [14] has as its system SNB-19.
The test system of test [15] is SNB-75.
The test system of test [16] is U-251.
In test [17] the test system is UO-31.
Test [18] relates to DU-145.
Test [19] concerns MCF7.
The test system of test [20] is T47D.

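Tested at 5 concentrations; 48 h exposure; 96-well plates; endpoints linearly interpolated, else capped at highest concentration. GI50 marks 50% less growth.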 The source made the active and inactive calls. No stated cut-off is given here; in the data, active = GI50 up to about 1.1 µM and inactive = higher. Where only a bound is given, the exact number is not on record here.

`CCCOC(=O)C1C(c2ccc(OC)cc2)NC(c2ccc(OC)cc2)C(C(=O)OCCC)S1(=O)=O` (centres undefined): the GI50 in [1], in test [2], in test [3], in test [4], in test [5] and in test [6] was > 10 µM (inactive) each time. Further, the GI50 in [7], in [8], in [9], in [10], in test [11] and in test [12] was > 10 µM (inactive) throughout. Further, the GI50 in test [13], in test [14], in [15], in test [16] and in test [17] was > 10 µM (inactive) in each case.

On to `CCCCN[C@H]1C2C3CC4C5CC(C42)C1(C)C53` (some centres undefined), for which the GI50 in test [1], in test [2], in test [3], in test [4], in test [5] and in [6] was > 100 µM (inactive) throughout. Besides, the GI50 in test [7], in test [8], in test [9], in [10], in test [11] and in [12] was > 100 µM (inactive) in each case. The GI50 in test [13], in test [14], in [15], in test [16] and in test [17] was > 100 µM (inactive) each time.

In the case of `Cn1ncc2c(c1=O)Nc1ccccc1S2(=O)=O`, the GI50 was 28.4 µM (inactive) in test [1]; > 100 µM (inactive) in [2]; 54.7 µM (inactive) in test [3]; > 100 µM (inactive) in [4]; 50 µM (inactive) in test [5]; > 100 µM (inactive) in test [6]. The GI50 in [7], in test [8], in test [9], in [10], in test [11] and in [12] was > 100 µM (inactive) throughout. The GI50 in test [13] is > 100 µM (inactive); in test [14], > 100 µM (inactive); in test [15], > 100 µM (inactive); in test [16], 34.6 µM (inactive); in [17] it was > 100 µM (inactive).

`COc1cc2c(OC)cc1CSCc1sc(C)c(c1Br)CSC2`: the GI50 in test [1], in test [2], in test [3], in test [4], in test [5] and in test [6] was > 100 µM (inactive) each time. Moreover, the GI50 in test [7], in [8], in [9], in test [10], in test [11] and in [12] was > 100 µM (inactive) each time. Also, the GI50 in test [13] is > 100 µM (inactive); in test [14], > 100 µM (inactive); in test [15] it was 74.1 µM (inactive); in [16], > 100 µM (inactive); in [17], > 100 µM (inactive).

Turning to `C=C(CN(C)C)C(=O)c1cc(C)ccc1C`, the GI50 is 2.96 µM (inactive) in test [1]; 4.39 µM (inactive) in test [2]; 1.58 µM (inactive) in [3]; 11.7 µM (inactive) in [4]; 14.4 µM (inactive) in [18]; 4.7 µM (inactive) in [5]. Moreover, the GI50 is 2.81 µM (inactive) in test [6]; 4.84 µM (inactive) in test [7]; 2.96 µM (inactive) in test [19]; 13.2 µM (inactive) in test [8]; 14.8 µM (inactive) in [9]; 16.7 µM (inactive) in test [10]. Also, the GI50 in [11] is 9.1 µM (inactive); in [12] it was 16.9 µM (inactive); in test [13], 13.3 µM (inactive); in test [14], 19.9 µM (inactive); in test [15] it was 17.2 µM (inactive); in test [20] it was 4.11 µM (inactive). In addition, the GI50 in test [16] was 15.7 µM (inactive); in [17], 6.87 µM (inactive).

Consider `O=C(/C(=C\c1ccccc1)CN1CCOCC1)c1ccc(Br)cc1`, for which the GI50 in [1] was 1.57 µM (inactive); in test [2], 1.88 µM (inactive); in test [3], 3.25 µM (inactive); in test [4] it was 2.88 µM (inactive); in test [5], 1.72 µM (inactive); in [6], 5.47 µM (inactive). The GI50 in [7] is 1.65 µM (inactive); in test [8], 6.68 µM (inactive); in test [9], 3.48 µM (inactive); in test [10], 5.97 µM (inactive); in [11], 1.76 µM (inactive); in test [12] it was 1.92 µM (inactive). Further, the GI50 in test [13] was 1.91 µM (inactive); in test [14], 5.79 µM (inactive); in [15], 10.8 µM (inactive); in test [16], 2.51 µM (inactive); in test [17], 1.8 µM (inactive).

For the molecule `c1ccc2c(c1)n1nnnc1c1nnnn21`, the GI50 is 83.4 µM (inactive) in test [1]; > 100 µM (inactive) in [2]; > 100 µM (inactive) in [3]; > 100 µM (inactive) in [4]; > 100 µM (inactive) in [5]; 18.6 µM (inactive) in [6]. Moreover, the GI50 in test [7] was 33.5 µM (inactive); in test [8], > 100 µM (inactive); in [9], > 100 µM (inactive); in [10], 77.8 µM (inactive); in test [11] it was > 100 µM (inactive); in test [12] it was > 100 µM (inactive). The GI50 was > 100 µM (inactive) in [13]; > 100 µM (inactive) in test [14]; 24.6 µM (inactive) in test [15]; > 100 µM (inactive) in [16]; > 100 µM (inactive) in test [17].

On to `NCCCNc1ccc2c3c(nn2CCNCCO)-c2c(O)ccc(O)c2C(=O)c13`, for which the GI50 in test [1] was 2.38 µM (inactive); in test [3], 1.44 µM (inactive); in test [4] it was 0.366 µM (active); in test [18], 1.29 µM (inactive); in test [7], 0.927 µM (active); in [19] it was 0.418 µM (active). Besides, the GI50 is 0.406 µM (active) in [8]; 4.28 µM (inactive) in test [9]; 0.889 µM (active) in test [10]; 0.925 µM (active) in test [13]; 0.354 µM (active) in test [14]; 0.889 µM (active) in test [15]. Also, the GI50 in test [20] was 2.18 µM (inactive).

In the case of `NC(=O)c1cc(N2CC2)c([N+](=O)[O-])cc1[N+](=O)[O-]` [TRETAZICAR], the GI50 was > 100 µM (inactive) in [1]; > 100 µM (inactive) in [2]; > 100 µM (inactive) in test [3]; > 100 µM (inactive) in [4]; > 200 µM (inactive) in test [18]; > 100 µM (inactive) in test [5]. The GI50 is > 100 µM (inactive) in test [6]; > 100 µM (inactive) in test [7]; > 63.2 µM (inactive) in [19]; > 100 µM (inactive) in [8]; > 100 µM (inactive) in [9]; > 100 µM (inactive) in [10]. Further, the GI50 in test [11] is > 200 µM (inactive); in test [12], > 20 µM (inactive); in test [13], > 200 µM (inactive); in test [14], > 100 µM (inactive); in [20], > 200 µM (inactive); in test [16] it was > 100 µM (inactive). The GI50 in test [17] is > 100 µM (inactive).

For the origin of these results see ChEMBL document CHEMBL1201862, “PubChem BioAssay data set” (2004).
